# Counter-ions that a name gives are not always drawn.
# Assays:
# [1] = test system: HCT116 FOP control reporter cell line; assay: HCT116 FOPFlash control reporter assay (FOP control vector, non-functional TCF elements); format: cell-based; details: HCT116 FOP control reporter cells, 36 hours incubation, luciferase expression
# From the text: In a parallel approach, HCT116 cells were cotransfected with the FOP control vector and pcDNA3. The FOP vector is identical to the TOP construct, but it contains instead of functional TCF elements a randomized, non-functional sequence. For this transfection a stable transfected cell line was generated as well.
# [2] = test system: constitutive active colorectal cancer cell (CRC) Wnt pathway; assay: HCT116 TOPFlash cellular reporter assay (Super TopFlash luciferase), constitutive active Wnt pathway; format: cell-based; details: HCT116 TOP reporter cells, 36 hours incubation, luciferase expression
# Protocol: In order to discover and characterize small molecules which inhibit the constitutive active colorectal cancer cell (CRC) Wnt pathway, a cellular reporter assay was employed. […] Stable transfectants were generated by cotransfection with pcDNA3 and selection of stable transfected cells with 1 mg/ml G418.
SMILES,IC50 [1],IC50 [2],"IC50 ([1]; Homo sapiens, HCT-116, 36 h)","IC50 ([2]; Homo sapiens, HCT-116, 36 h)"
"CC(C(=O)Nc1cc(C(=O)Nc2ccc(-c3cccc(F)c3)nc2)ccc1OC(F)(F)F)N1CCOCC1 (centres unmarked) [Example 69, N-[6-(3-fluorophenyl)pyridin-3-yl]-3-{[2-(morpholin-4-yl)propanoyl]amino}-4-(trifluoromethoxy)benzamide]",≥ 50000 nM,14.8 nM,–,–
"O=C(Nc1nnc(-c2ccccc2F)s1)c1ccc(OC(F)(F)F)c(NC(=O)C2(N3CCOCC3)CC2)c1 [Example 89, N-[5-(2-fluorophenyl)-1,3,4-thiadiazol-2-yl]-3-({[1-(morpholin-4-yl)cyclopropyl]carbonyl}amino)-4-(trifluoromethoxy)benzamide]",–,–,44000 nM,216 nM
"CC(C(=O)Nc1cc(NC(=O)c2ccc(-c3cccc(F)c3)nc2)ccc1OC(F)(F)F)N1CC2CCC(C1)O2 (centres unmarked) [Example 200, 6-(3-fluorophenyl)-N-[3-{[2-(8-oxa-3-azabicyclo[3.2.1]oct-3-yl)propanoyl]amino}-4-(trifluoromethoxy)phenyl] nicotinamide]",6400 nM,190 nM,–,–
"Cc1cccc(-c2nnc(NC(=O)c3ccc(OC(F)(F)F)c(NC(=O)CN4CCOCC4)c3)s2)c1 [Example 96, N-[5-(3-methylphenyl)-1,3,4-thiadiazol-2-yl]-3-[(morpholin-4-ylacetyl)amino]-4-(trifluoromethoxy)benzamide]",–,–,≥ 50000 nM,855 nM
"Cc1ccccc1-c1nnc(NC(=O)c2ccc(OC(F)(F)F)c(NC(=O)CN3CCN(C)CC3)c2)s1 [Example 144, N-[5-(2-methylphenyl)-1,3,4-thiadiazol-2-yl]-3-{[(4-methylpiperazin-1-yl)acetyl]amino}-4-(trifluoromethoxy)benzamide]",–,–,≥ 50000 nM,195 nM
"COc1ccc(NC(=O)c2ccc(-c3ccccc3)nc2)cc1NC(=O)CN1CCOCC1 [Example 34, N-{4-methoxy-3-[(morpholin-4-ylacetyl)amino]phenyl}-6-phenylnicotinamide]",–,–,≥ 50000 nM,1220 nM
"O=C(CN1CCOCC1)Nc1cc(C(=O)Nc2nnc(-c3cccc(F)c3)s2)ccc1OC(F)(F)F [Example 153, N-[5-(3-fluorophenyl)-1,3,4-thiadiazol-2-yl]-3-[(morpholin-4-ylacetyl)amino]-4-(trifluoromethoxy)benzamide]",–,–,30000 nM,132 nM
"C[C@@H](C(=O)Nc1cc(C(=O)Nc2ccc(-c3ccc(CO)cc3)nc2)ccc1OC(F)(F)F)N1CCOCC1 (single isomer, unassigned) [Example 119, N-{6-[4-(hydroxymethyl)phenyl]pyridin-3-yl}-3-{[(2S)-2-(morpholin-4-yl)propanoyl]amino}-4-(trifluoromethoxy)benzamide or N-{6-[4-(hydroxymethyl)phenyl]pyridin-3-yl}-3-{[(2R)-2-(morpholin-4-yl)propanoyl]amino}-4-(trifluoromethoxy)benzamide]",≥ 50000 nM,650 nM,–,–
"CC(C(=O)Nc1cc(NC(=O)c2ccc(-c3cc(F)cc(F)c3)nc2)ccc1OC(F)(F)F)N1CC2CCC(C1)O2 (centres unmarked) [Example 186, 6-(3,5-difluorophenyl)-N-[3-{[2-(8-oxa-3-azabicyclo[3.2.1]oct-3-yl)propanoyl]amino}-4-(trifluoromethoxy)phenyl] nicotinamide]",5400 nM,95.5 nM,–,–
"COCc1ccc(C(=O)Nc2nnc(-c3ccccc3)s2)cc1NC(=O)CN1CCN(C2CC2)CC1 [Example 84, 3-{[(4-cyclopropylpiperazin-1-yl)acetyl]amino}-4-(methoxymethyl)-N-(5-phenyl-1,3,4-thiadiazol-2-yl)benzamide]",–,–,≥ 50000 nM,453 nM
"CC1CN(CC(=O)Nc2cc(C(=O)Nc3nnc(-c4ccccc4)s3)ccc2OC(F)(F)F)CCN1C (centres unmarked) [Example 160, 3-{[(3,4-dimethylpiperazin-1-yl)acetyl]amino}-N-(5-phenyl-1,3,4-thiadiazol-2-yl)-4-(trifluoromethoxy)benzamide]",–,–,28000 nM,948 nM
"CC(C(=O)Nc1cc(C(=O)Nc2ccc(-c3ccccc3F)nc2)ccc1C(F)(F)F)N1CCOCC1 (centres unmarked) [Example 211, N-[6-(2-fluorophenyl)pyridin-3-yl]-3-{[2-(morpholin-4-yl)propanoyl]amino}-4-(trifluoromethyl)benzamide]",24600 nM,40.2 nM,–,–
"CN(C)C1(C(=O)Nc2cc(C(=O)Nc3ccc(-c4ccccc4F)nc3)ccc2OC(F)(F)F)CC1 [Example 179, 3-({[1-(dimethylamino)cyclopropyl]carbonyl}amino)-N-[6-(2-fluorophenyl)pyridin-3-yl]-4-(trifluoromethoxy)benzamide]",–,–,≥ 50000 nM,362 nM
"O=C(CN1CCOCC1)Nc1cc(C(=O)Nc2ncc(-c3ccccc3)s2)ccc1C(F)(F)F [Example 12, 3-[(morpholin-4-ylacetyl)amino]-N-(5-phenyl-1,3-thiazol-2-yl)-4-(trifluoromethyl)benzamide]",–,–,≥ 50000 nM,530 nM
"COCc1ccc(C(=O)Nc2nnc(-c3ccccc3C)s2)cc1NC(=O)C1(N2CCN(C)CC2)CC1 [Example 258, 4-(methoxymethyl)-N-[5-(2-methylphenyl)-1,3,4-thiadiazol-2-yl]-3-({[1-(4-methylpiperazin-1-yl)cyclopropyl]carbonyl}amino)benzamide trifluoroacetate (1:1)]",–,–,24000 nM,45.5 nM
"O=C(Nc1ccc(-c2ccccc2F)nc1)c1ccc(F)c(NC(=O)C2(N3CCOCC3)CC2)c1 [Example 77, 4-fluoro-N-[6-(2-fluorophenyl)pyridin-3-yl]-3-({[1-(morpholin-4-yl)cyclopropyl]carbonyl}amino)benzamide]",–,–,14000 nM,370 nM
"O=C(CN1CCOCC1)Nc1cc(C(=O)Nc2nc(-c3ccccc3)no2)ccc1OC(F)(F)F [Example 125, 3-[(morpholin-4-ylacetyl)amino]-N-(3-phenyl-1,2,4-oxadiazol-5-yl)-4-(trifluoromethoxy)benzamide]",–,–,≥ 50000 nM,1700 nM
"CC(C(=O)Nc1cc(C(=O)Nc2ccc(-c3ccccc3F)nc2)ccc1C(C)(C)C)N1CCOCC1 (centres unmarked) [Example 142, 4-tert-butyl-N-[6-(2-fluorophenyl)pyridin-3-yl]-3-{[2-(morpholin-4-yl)propanoyl]amino}benzamide]",–,–,7150 nM,118 nM

# More lines, now with the values ahead:
IC50 [1],IC50 [2],"IC50 ([1]; Homo sapiens, HCT-116, 36 h)","IC50 ([2]; Homo sapiens, HCT-116, 36 h)",SMILES
≥ 50000 nM,180 nM,–,–,"CC(C(=O)Nc1cc(NC(=O)c2ccc(-c3ccccc3F)nc2)ccc1OC(F)(F)F)N1CC2CCC(C1)O2 (centres unmarked) [Example 212, 6-(2-fluorophenyl)-N-[3-{[2-(8-oxa-3-azabicyclo[3.2.1]oct-3-yl)propanoyl]amino}-4-(trifluoromethoxy)phenyl] nicotinamide]"
15200 nM,263 nM,–,–,"CC(C(=O)Nc1cc(NC(=O)c2ccc(-c3cccc(F)c3)nc2)ccc1OC(F)(F)F)N1C[C@@H]2C[C@H]1CO2 (relative stereo) [Example 222, 6-(3-fluorophenyl)-N-[3-({(2S*)-2-[(1S,4S)-2-oxa-5-azabicyclo[2.2.1]hept-5-yl]propanoyl}amino)-4-(trifluoromethoxy)phenyl] nicotinamide]"
–,–,≥ 50000 nM,2300 nM,"O=C(CN1CCOCC1)Nc1cc(NC(=O)c2cnc(-c3ccccc3)s2)ccc1OC(F)(F)F [Example 252, N-{3-[(morpholin-4-ylacetyl)amino]-4-(trifluoromethoxy)phenyl}-2-phenyl-1,3-thiazole-5-carboxamide]"
–,–,40500 nM,635 nM,"CC(C(=O)Nc1cc(C(=O)Nc2nnc(-c3ccccc3)s2)ccc1OC(F)(F)F)N1CCN(C2CC2)CC1 (centres unmarked) [Example 234, 3-{[2-(4-cyclopropylpiperazin-1-yl)propanoyl]amino}-N-(5-phenyl-1,3,4-thiadiazol-2-yl)-4-(trifluoromethoxy)benzamide]"
–,–,6500 nM,245 nM,"O=C(CN1CC2CCC(C1)O2)Nc1cc(C(=O)Nc2ccc(-c3ccccc3F)nc2)ccc1C(F)(F)F [Example 226, N-[6-(2-fluorophenyl)pyridin-3-yl]-3-[(8-oxa-3-azabicyclo[3.2.1]oct-3-ylacetyl)amino]-4-(trifluoromethyl)benzamide]"
–,–,≥ 50000 nM,365 nM,"O=C(CN1CCOCC1)Nc1cc(C(=O)Nc2nnc(-c3ccccc3)s2)ccc1OCC1CC1 [Example 268, 4-(cyclopropylmethoxy)-3-[(morpholin-4-ylacetyl)amino]-N-(5-phenyl-1,3,4-thiadiazol-2-yl)benzamide]"
–,–,≥ 50000 nM,240 nM,"COc1ccc(NC(=O)c2ccc(-c3ccccc3)nc2)cc1NC(=O)C1(N2CCOCC2)CC1 [Example 256, N-[4-methoxy-3-({[1-(morpholin-4-yl)cyclopropyl]carbonyl}amino)phenyl]-6-phenylnicotinamide]"
–,–,≥ 50000 nM,345 nM,"Cc1ccccc1-c1nnc(NC(=O)c2ccc(OC3CC3)c(NC(=O)CN3CCOCC3)c2)s1 [Example 266, 4-(cyclopropyloxy)-N-[5-(2-methylphenyl)-1,3,4-thiadiazol-2-yl]-3-[(morpholin-4-ylacetyl)amino]benzamide]"
27800 nM,47.5 nM,–,–,"CC(C(=O)Nc1cc(C(=O)Nc2ccc(-c3cc(F)cc(F)c3)nc2)ccc1OC(F)(F)F)N1CCOCC1 (centres unmarked) [Example 246, N-[6-(3,5-difluorophenyl)pyridin-3-yl]-3-{[2-(morpholin-4-yl)propanoyl]amino}-4-(trifluoromethoxy)benzamide]"
–,–,13000 nM,139 nM,"O=C(CN1CCOCC1)Nc1cc(C(=O)Nc2ccc(-c3ccccc3F)nc2)ccc1OC(F)F [Example 237, 4-(difluoromethoxy)-N-[6-(2-fluorophenyl)pyridin-3-yl]-3-[(morpholin-4-ylacetyl)amino]benzamide]"

# Source: US10130633B2, “Compounds” (BAYER PHARMA AKTIENGESELLSCHAFT, priority 2013, dated 2018)
